Key:
Format in all cases: physicochemical
[1] = Spectral Properties of 9 in CH2Cl2, Table 3; parameters: emax: unit not given beside the values; settings: for Ff: Rhodamine 101 in EtOH as the standard
[2] = Spectral properties (absorbance, fluorescence, quantum yield) of sulfonated BODIPY dyes 6, Table 1; settings: for F: Fluorescein in 0.1M NaOH as standard
Description: A fluorophore, according to some embodiments of the disclosure, may have a high extinction coefficient and/or a sharp, intense fluorescence emission (e.g., rivaling that of the BODIPY dyes). A fluorophore may also have single molecule detection capacity.

[3] = Fluorescence properties of water-soluble Nile Blue derivatives in aqueous media; settings: for quantum yields versus I and J: pH 7.4 in aqueous media; for fwmh less than reported water-soluble Nile Blue derivatives: phosphate buffer pH 7.4, versus I and J
Description: A dye may include, in some embodiments, one or more of Nile Blue derivatives 17-20 (FIG. 11).

[4] = Water solubility of through-bond energy transfer cassettes
[5] = 0.1M lithium phosphate buffer (pH = 7.4)

SMILES	If [1] [nm]	Imax [1] [nm]	emax [1]	fwhm (full width at half-maximum height) [1] [nm]	Ff [1]	Imax abs ([2]; solvent MeOH) [nm]	Imax emiss ([2]; solvent MeOH) [nm]	e ([2]; solvent MeOH) [M⁻¹ cm⁻¹]	fwhm ([2]; solvent MeOH) [nm]	F ([2]; solvent MeOH)	further results
CC1=[N+]2C(=Cc3c(C)cc(C)n3[B-]2(F)F)C(=O)N1C [6a]	–	–	–	–	–	477	485	57286	19	0.89 ± 0.01	–
Cc1cc(C)n2c1C=C1C(=O)N(C)C(c3ccccc3)=[N+]1[B-]2(F)F [6b]	–	–	–	–	–	490	521	58684	46	0.87 ± 0.01	–
Cc1cc(C)n2c1C=C1C(=O)N(C)C(c3ccc(I)cc3)=[N+]1[B-]2(F)F [6c]	–	–	–	–	–	492	532	57303	54	0.86 ± 0.02	–
COc1ccc(C2=[N+]3C(=Cc4c(C)cc(C)n4[B-]3(F)F)C(=O)N2C)cc1 [6d]	–	–	–	–	–	493	521	51269	38	0.85 ± 0.03	–
Cc1cc(C)n2c1C=C1C(=O)NC(c3ccccc3)=[N+]1[B-]2(F)F [6e]	–	–	–	–	–	495	531	37867	48	0.80 ± 0.01	–
Cc1cc(C)n2c1C=C1C(=O)N(C)C(c3ccc([N+](=O)[O-])cc3)=[N+]1[B-]2(F)F [6f]	–	–	–	–	–	492	598	44003	120	0.0004	Imax abs ([2]; solvent Hexanes): 498 nm; Imax emiss ([2]; solvent Hexanes): 587 nm; fwhm ([2]; solvent Hexanes): 53 nm; F ([2]; solvent Hexanes): 0.53 ± 0.01
Cc1c(S(=O)(=O)[O-])c(C)n2c1C=C1C(=O)N(C)C(c3ccc(I)cc3)=[N+]1[B-]2(F)F.[Na+] [6g]	–	–	–	–	–	488	531	48132	53	0.88 ± 0.01	Imax abs [2, 5]: 481 nm; Imax emiss [2, 5]: 518 nm; e [2, 5]: 46461 M⁻¹ cm⁻¹; fwhm [2, 5]: 50 nm; F [2, 5]: 0.87 ± 0.01
Cc1c(S(=O)(=O)O)c(C)n2c1C=C1C(=O)N(C)C(c3ccc(C#CCCCC(=O)O)cc3)=[N+]1[B-]2(F)F [6h]	–	–	–	–	–	488	538	35024	58	0.84 ± 0.01	Imax abs [2, 5]: 482 nm; Imax emiss [2, 5]: 526 nm; e [2, 5]: 34766 M⁻¹ cm⁻¹; fwhm [2, 5]: 56 nm; F [2, 5]: 0.82 ± 0.01
CCN(CCCS(=O)(=O)O)c1ccc2nc3c4cc(O)ccc4c(=NCCCS(=O)(=O)O)cc-3oc2c1.Cl [compound 17]	–	–	–	–	–	–	–	–	–	–	quantum yields versus I and J [3]: improved quantum yields; fwmh less than reported water-soluble Nile Blue derivatives [3]: 20 nm
Cl.O=C(O)CCN(CCC(=O)O)c1ccc2nc3c4cc(O)ccc4c(=NCCCS(=O)(=O)O)cc-3oc2c1 [compound 18]	–	–	–	–	–	–	–	–	–	–	quantum yields versus I and J [3]: improved quantum yields; fwmh less than reported water-soluble Nile Blue derivatives [3]: 20 nm
COc1ccccc1C1=[N+]2C(=C(c3ccc(-c4cn(-c5ccc(C6=C7C(C)=C(S(=O)(=O)[O-])C(C)=[N+]7[B-](F)(F)n7c(C)c(S(=O)(=O)[O-])c(C)c76)cc5)nn4)cc3OCC(=O)O)c3ccc(-c4ccccc4OC)n3[B-]2(F)F)C=C1.[Na+].[Na+] [compound 22]	–	–	–	–	–	–	–	–	–	–	water solubility [4]: water soluble

Second part, led by results:

If [1] [nm]	Imax [1] [nm]	emax [1]	fwhm (full width at half-maximum height) [1] [nm]	Ff [1]	Imax abs ([2]; solvent MeOH) [nm]	Imax emiss ([2]; solvent MeOH) [nm]	e ([2]; solvent MeOH) [M⁻¹ cm⁻¹]	fwhm ([2]; solvent MeOH) [nm]	F ([2]; solvent MeOH)	SMILES	further results
537	456	52423	52	0.85 ± 0.01	–	–	–	–	–	CCC(C)Nc1c2ccc(=[N+]3CCCCC3)cc-2oc2cc(N3CCCCC3)ccc12.O=S(=O)([O-])C(F)(F)F (racemic) [9c]	–
562	491	60409	55	0.14 ± 0.01	–	–	–	–	–	O=S(=O)([O-])C(F)(F)F.c1cc2c(N3CCCCC3)c3ccc(=[N+]4CCCCC4)cc-3oc2cc1N1CCCCC1 [9a]	–
558	499	50978	41	0.11 ± 0.02	–	–	–	–	–	CCN(CC)c1c2ccc(=[N+]3CCCCC3)cc-2oc2cc(N3CCCCC3)ccc12.O=S(=O)([O-])C(F)(F)F [9b]	–
544	462	62044	52	0.90 ± 0.02	–	–	–	–	–	CC(Nc1c2ccc(=[N+]3CCCCC3)cc-2oc2cc(N3CCCCC3)ccc12)C(=O)OC(C)(C)C.O=S(=O)([O-])C(F)(F)F (centres unmarked) [9d]	–
619	598	82617	38	0.79 ± 0.02	–	–	–	–	–	O=S(=O)([O-])C(F)(F)F.c1ccc(CSc2c3ccc(=[N+]4CCCCC4)cc-3oc3cc(N4CCCCC4)ccc23)cc1 [9e]	–
552	482	54908	47	0.02 ± 0.001	–	–	–	–	–	COC(=O)C1CCN(c2ccc3c(N4CCCCC4)c4ccc(=[N+]5CCC(C(=O)OC)CC5)cc-4oc3c2)CC1.O=S(=O)([O-])C(F)(F)F (centres unmarked) [9f]	–
